Test results: PubChem BioAssay AID2060890 (Molecular Pharmacology Branch, DTP, NCI, 2025)

Tested on: LG0703-F948-PDC complex spheroid viability
Experiment: Anticancer human tumor LG0703-F948-PDC patient-derived lung adenocarcinoma cell line growth inhibition [RAS]
Settings: for IC50: curve of first compound; for viability, T/C: stronger effect = lower value
Outline: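 Tumour cells grown as complex spheroids with HUVEC endothelial cells and mesenchymal stem cells, treated with RAS pathway inhibitor combinations. Each agent spans half-log steps from near clinical Cmax, or 10 microM where Cmax is unknown.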

[1] = second compound 0.000949 µM, first compound 0.0316 µM
[2] = second compound 0.000949 µM, first compound 0.1 µM
[3] = second compound 0.003 µM, first compound 0.0316 µM
[4] = second compound 0.003 µM, first compound 0.1 µM
[5] = second compound 0.00949 µM, first compound 0.0316 µM
[6] = second compound 0.00949 µM, first compound 0.1 µM
[7] = second compound 0.03 µM, first compound 0.0316 µM
[8] = second compound 0.03 µM, first compound 0.1 µM
[9] = second compound 0.0949 µM, first compound 0.0316 µM
[10] = second compound 0.0949 µM, first compound 0.1 µM
[11] = second compound 0.3 µM, first compound 0.0316 µM
[12] = second compound 0.3 µM, first compound 0.1 µM
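Note: spheroids exposed to agents for 7 days.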
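Throughout, for viability, T/C: 100% = DMSO vehicle wells.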

Compound: CC(C)n1nc(-c2ccc3oc(N)nc3c2)c2c(N)ncnc21 + CCn1c(-c2cc(N3CCN(C)CC3)cnc2C(C)OC)c2c3cc(ccc31)-c1csc(n1)CC(NC(=O)C1CC1C)C(=O)N1CCCC(N1)C(=O)OCC(C)(C)C2
- IC50 (second compound 0.000949 µM): 1.53 nM
- IC50 (second compound 0.003 µM): 0.429 nM
- IC50 (second compound 0.00949 µM): < 0.316 nM
- IC50 (second compound 0.03 µM): < 0.316 nM
- IC50 (second compound 0.0949 µM): < 0.316 nM
- IC50 (second compound 0.3 µM): < 0.316 nM
- viability, T/C (second compound 0.000949 µM, first compound 0.000316 µM): 66.8%
- viability, T/C (second compound 0.000949 µM, first compound 0.001 µM): 56.5%
- viability, T/C (second compound 0.000949 µM, first compound 0.00316 µM): 38.5%
- viability, T/C (second compound 0.000949 µM, first compound 0.01 µM): 30.5%
- viability, T/C [1]: 12.7%
- viability, T/C [2]: 5.51%
- viability, T/C (second compound 0.003 µM, first compound 0.000316 µM): 55.5%
- viability, T/C (second compound 0.003 µM, first compound 0.001 µM): 34.8%
- viability, T/C (second compound 0.003 µM, first compound 0.00316 µM): 29.7%
- viability, T/C (second compound 0.003 µM, first compound 0.01 µM): 13.1%
- viability, T/C [3]: 8.23%
- viability, T/C [4]: 3.1%
- viability, T/C (second compound 0.00949 µM, first compound 0.000316 µM): 31.1%
- viability, T/C (second compound 0.00949 µM, first compound 0.001 µM): 20.7%
- viability, T/C (second compound 0.00949 µM, first compound 0.00316 µM): 12.6%
- viability, T/C (second compound 0.00949 µM, first compound 0.01 µM): 6.99%
- viability, T/C [5]: 4.36%
- viability, T/C [6]: 2.06%
- viability, T/C (second compound 0.03 µM, first compound 0.000316 µM): 12.7%
- viability, T/C (second compound 0.03 µM, first compound 0.001 µM): 13.1%
- viability, T/C (second compound 0.03 µM, first compound 0.00316 µM): 6.11%
- viability, T/C (second compound 0.03 µM, first compound 0.01 µM): 5.4%
- viability, T/C [7]: 2.59%
- viability, T/C [8]: 1.58%
- viability, T/C (second compound 0.0949 µM, first compound 0.000316 µM): 12.9%
- viability, T/C (second compound 0.0949 µM, first compound 0.001 µM): 8.35%
- viability, T/C (second compound 0.0949 µM, first compound 0.00316 µM): 6.05%
- viability, T/C (second compound 0.0949 µM, first compound 0.01 µM): 3.05%
- viability, T/C [9]: 1.82%
- viability, T/C [10]: 1.05%
- viability, T/C (second compound 0.3 µM, first compound 0.000316 µM): 10.7%
- viability, T/C (second compound 0.3 µM, first compound 0.001 µM): 7.72%
- viability, T/C (second compound 0.3 µM, first compound 0.00316 µM): 4.76%
- viability, T/C (second compound 0.3 µM, first compound 0.01 µM): 3.02%
- viability, T/C [11]: 1.64%
- viability, T/C [12]: 0.76%

Compound: C[C@@H](NC(=O)c1ncnc(N)c1Cl)c1ncc(C(=O)Nc2cc(C(F)(F)F)c(Cl)cn2)s1 + CCn1c(-c2cc(N3CCN(C)CC3)cnc2C(C)OC)c2c3cc(ccc31)-c1csc(n1)CC(NC(=O)C1CC1C)C(=O)N1CCCC(N1)C(=O)OCC(C)(C)C2
- IC50 (second compound 0.000949 µM): > 10000 nM
- IC50 (second compound 0.003 µM): > 10000 nM
- IC50 (second compound 0.00949 µM): < 31.6 nM
- IC50 (second compound 0.03 µM): < 31.6 nM
- IC50 (second compound 0.0949 µM): < 31.6 nM
- IC50 (second compound 0.3 µM): < 31.6 nM
- viability, T/C [1]: 74.7%
- viability, T/C [2]: 78.6%
- viability, T/C (second compound 0.000949 µM, first compound 0.316 µM): 79.2%
- viability, T/C (second compound 0.000949 µM, first compound 1 µM): 76.4%
- viability, T/C (second compound 0.000949 µM, first compound 3.16 µM): 83.9%
- viability, T/C (second compound 0.000949 µM, first compound 10 µM): 75.6%
- viability, T/C [3]: 54.3%
- viability, T/C [4]: 46.9%
- viability, T/C (second compound 0.003 µM, first compound 0.316 µM): 52.8%
- viability, T/C (second compound 0.003 µM, first compound 1 µM): 65.1%
- viability, T/C (second compound 0.003 µM, first compound 3.16 µM): 55.5%
- viability, T/C (second compound 0.003 µM, first compound 10 µM): 68.9%
- viability, T/C [5]: 31.6%
- viability, T/C [6]: 28.8%
- viability, T/C (second compound 0.00949 µM, first compound 0.316 µM): 28.1%
- viability, T/C (second compound 0.00949 µM, first compound 1 µM): 30.3%
- viability, T/C (second compound 0.00949 µM, first compound 3.16 µM): 33.8%
- viability, T/C (second compound 0.00949 µM, first compound 10 µM): 39.8%
- viability, T/C [7]: 17.5%
- viability, T/C [8]: 17.6%
- viability, T/C (second compound 0.03 µM, first compound 0.316 µM): 16.1%
- viability, T/C (second compound 0.03 µM, first compound 1 µM): 17%
- viability, T/C (second compound 0.03 µM, first compound 3.16 µM): 21.2%
- viability, T/C (second compound 0.03 µM, first compound 10 µM): 21.5%
- viability, T/C [9]: 15.8%
- viability, T/C [10]: 9.99%
- viability, T/C (second compound 0.0949 µM, first compound 0.316 µM): 11.8%
- viability, T/C (second compound 0.0949 µM, first compound 1 µM): 13.7%
- viability, T/C (second compound 0.0949 µM, first compound 3.16 µM): 15.9%
- viability, T/C (second compound 0.0949 µM, first compound 10 µM): 13.7%
- viability, T/C [11]: 11.7%
- viability, T/C [12]: 11.5%
- viability, T/C (second compound 0.3 µM, first compound 0.316 µM): 13.1%
- viability, T/C (second compound 0.3 µM, first compound 1 µM): 9.77%
- viability, T/C (second compound 0.3 µM, first compound 3.16 µM): 14.9%
- viability, T/C (second compound 0.3 µM, first compound 10 µM): 15.3%
